Assay results as given in the supplement of paper PMC10307832.

Key:
BGJ398 + Foretinib = compound: CCN1CCN(c2ccc(Nc3cc(N(C)C(=O)Nc4c(Cl)c(OC)cc(OC)c4Cl)ncn3)cc2)CC1 [BGJ398] + COc1cc2c(Oc3ccc(NC(=O)C4(C(=O)Nc5ccc(F)cc5)CC4)cc3F)ccnc2cc1OCCCN1CCOCC1 [Foretinib] (partner 0.25 µM); assay: relative viability (nuclei count vs DMSO), 5 days (fraction); higher = more cells survive
In short: (§1)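 One day after seeding in 1536-well plates, lung cancer cell lines were dosed by pin tool. Dosing was either single-drug or a fixed anchor-drug dose plus five library-drug doses (not always all listed) in √10 steps. After 5 days, nuclei were stained in one fix-and-stain step and counted on 4× images, and relative viability is the nuclei count of treated wells over that of vehicle wells, given as the median of duplicate plates.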

[1] = compound: C1=CC2=NC=CN=C2C=C1/C=C/3\C(=O)NC(=O)S3 + CC1(C)CCC(c2ccc(Cl)cc2)=C(CN2CCN(c3ccc(C(=O)NS(=O)(=O)c4ccc(N[C@H](CCN5CCOCC5)CSc5ccccc5)c(S(=O)(=O)C(F)(F)F)c4)cc3)CC2)C1 [Navitoclax] (partner 0.5 µM); assay: as above
In short: as §1

Row | Cell Line | relative viability (BGJ398 + Foretinib; first compound 0.01 µM) | relative viability (BGJ398 + Foretinib; first compound 0.03162 µM) | relative viability (BGJ398 + Foretinib; first compound 0.1 µM) | relative viability (BGJ398 + Foretinib; first compound 0.3162 µM) | relative viability (BGJ398 + Foretinib; first compound 1 µM) | relative viability ([1]; first compound 0.06325 µM) | relative viability ([1]; first compound 0.2 µM) | relative viability ([1]; first compound 0.6325 µM) | relative viability ([1]; first compound 2 µM) | relative viability ([1]; first compound 0.02 µM)
1 | NCI-H2342 | 1.05 | 0.98 | 1.08 | 1.07 | 1.1 |  |  |  |  | 
2 | SK-MES-1 | 0.869 | 1.08 | 0.971 | 0.809 | 1.12 | 1.4 | 1.3 | 1.21 | 1.23 | 
3 | HCC-366 | 0.924 | 0.883 | 0.944 | 0.89 | 1.08 | 0.776 | 1.1 | 1.1 | 0.897 | 1.1
4 | 201T | 1.18 | 1.1 | 1.05 | 0.958 | 1.02 | 1.26 | 1.19 | 1.21 | 1.18 | 1.18
5 | HCC-827 | 0.926 |  | 1.02 | 1 | 1.13 | 1.01 | 1.03 | 1.08 | 1.03 | 0.999
6 | NCI-H647 | 1.09 | 1.12 | 1.12 | 1.39 | 1.27 | 1.36 | 1.08 | 1.14 | 1.25 | 0.945
7 | NCI-H2023 | 0.847 | 0.997 | 0.79 | 0.805 | 0.905 | 1.11 | 1.02 | 1.02 | 0.978 | 1.01
8 | NCI-H520 | 0.777 | 0.7 | 0.316 | 0.25 | 0.236 | 1.49 | 1.08 | 1.04 | 1.01 | 1.15
9 | RERF-LC-KJ | 0.912 | 0.899 | 0.961 | 0.911 | 0.851 | 0.897 | 1.01 | 0.863 | 0.826 | 0.69
10 | A-427 | 1.09 | 0.919 | 0.954 | 0.715 | 0.623 | 0.977 | 0.993 | 0.934 | 0.877 | 0.935
11 | NCI-H441 | 0.997 | 0.902 | 0.893 | 0.998 | 1.11 | 0.562 |  | 0.771 | 0.553 | 0.523
12 | NCI-H1703 | 0.37 | 0.329 | 0.342 | 0.278 | 0.331 | 1.89 | 1.24 | 0.954 | 1 | 1.19
13 | NCI-H1792 |  |  |  |  |  | 0.621 | 0.564 | 0.658 | 0.401 | 0.597
14 | Calu-6 | 0.879 | 0.819 | 0.912 | 0.836 | 0.88 | 0.895 | 0.782 | 0.853 | 0.87 | 0.848
15 | SK-LU-1 | 0.716 | 0.833 | 0.778 | 0.791 | 0.869 | 0.765 | 1.02 | 0.854 | 0.868 | 0.84
16 | PC-3 [JPC-3] | 1.15 |  | 1.06 | 1 | 1.02 | 0.765 | 0.783 | 0.749 | 0.766 | 0.744
17 | EMC-BAC-2 | 1.12 | 1.02 | 0.98 | 1.05 | 0.992 | 1.03 | 1.15 | 1.12 | 1.25 | 1.11

Row | Cell Line | relative viability (BGJ398 + Foretinib; first compound 0.01 µM) | relative viability (BGJ398 + Foretinib; first compound 0.03162 µM) | relative viability (BGJ398 + Foretinib; first compound 0.1 µM) | relative viability (BGJ398 + Foretinib; first compound 0.3162 µM) | relative viability (BGJ398 + Foretinib; first compound 1 µM) | relative viability ([1]; first compound 0.06325 µM) | relative viability ([1]; first compound 0.2 µM) | relative viability ([1]; first compound 0.6325 µM) | relative viability ([1]; first compound 2 µM) | relative viability ([1]; first compound 0.02 µM)
18 | LK-2 | 1.28 | 0.947 | 0.897 | 0.618 | 0.309 | 1.03 | 1.04 | 0.684 | 0.548 | 0.791
19 | NCI-H2126 | 1.19 | 1.28 | 1.26 | 1.2 | 1.12 | 0.909 | 0.914 | 0.842 | 0.727 | 0.739
20 | NCI-H3122 | 1.01 | 0.973 | 0.963 | 0.89 | 0.971 | 0.997 | 0.973 | 1.01 | 1.08 | 1.06
21 | NCI-H1975 | 0.989 | 1.12 | 1.06 | 0.879 | 0.97 | 1.12 | 1.04 | 0.974 | 0.981 | 0.998
22 | NCI-H1944 | 0.946 | 0.889 | 0.941 | 0.831 | 0.826 | 1.05 | 1.08 | 0.95 | 1.04 | 1.02
23 | LU99A | 0.761 | 0.804 | 0.855 | 0.897 | 0.756 | 0.993 | 0.746 | 0.876 | 0.64 | 0.77
24 | SW 1573 | 0.91 | 1.13 | 0.866 | 0.594 | 0.973 | 1.05 | 1.05 | 0.866 | 0.945 | 0.879
25 | NCI-H2347 | 1.02 | 1.12 | 0.838 | 0.717 | 0.741 | 0.443 | 0.904 | 0.863 | 0.734 | 0.756
26 | NCI-H2009 | 1.11 | 1.24 | 1.22 | 1.22 | 1.26 | 1.2 | 1.15 | 1.21 | 1.23 | 1.2
27 | HCC-15 | 0.978 | 1.1 | 1.04 | 1.13 | 1.07 | 0.655 | 0.746 | 0.679 | 0.682 | 0.662
28 | HCC-44 |  |  |  |  |  | 1.02 | 0.946 | 1.02 | 0.892 | 0.969
29 | COR-L23 | 0.955 | 1.09 | 1.04 | 0.865 | 1.14 | 1.08 | 1.03 | 0.946 | 0.962 | 0.919
30 | HCC-78 | 0.563 | 0.597 | 0.504 | 0.614 | 0.549 | 0.641 | 0.741 | 0.733 | 0.767 | 0.667
31 | NCI-H1299 | 1.09 | 1.06 | 1.09 | 1.15 | 1.03 | 1.08 | 1.04 | 1.04 | 1.06 | 1.04
32 | NCI-H727 | 1.12 | 0.773 | 0.822 | 0.848 | 0.927 | 0.642 | 0.541 | 0.395 | 0.228 | 0.499
33 | NCI-H2087 | 1.05 | 1.33 | 1.18 | 1.15 | 1.09 | 1.2 | 1.07 | 1.04 | 0.96 | 0.88
34 | BEN | 0.722 | 0.866 | 0.568 | 0.395 | 0.453 | 0.0567 | 0.065 | 0.0608 | 0.0653 | 0.0591
